Measurements as given in article PMC3973950, “Synthesis of 5-arylidine amino-1,3,4-thiadiazol-2-[(N-substituted benzyol)]sulphonamides endowed with potent antioxidants and anticancer activity induces growth inhibition in HEK293, BT474 and NCI-H226 cells” (Medicinal Chemistry Research, 2013).

Assays:
[1] = Total antioxidant activity (ABTS radical cation scavenging); type: biochemical; conditions: Conc. ± SD; three independent experiments in duplicate; standard trolox; read-out: IC50 inhibitory concentration, ABTS^+ radical
Method: The ability of the test sample to scavenge 2,2′-azinobis-(3-ethylbenzothiazoline-6-sulphonic acid) (ABTS^·+) radical cation was compared with 6-hydroxy-2,5,7,8-tetramethylchroman-2-carboxylic acid (trolox) standard (Chang et al., [2007]; Erel, [2004]; Re et al., [1999]). The ABTS^·+ radical cation was pregenerated by mixing ABTS stock solution (7 mM) with potassium persulphate (2.45 mM) (final concentration) and incubating for 12–16 h in the dark at room temperature until the reaction was complete and the absorbance was stable. The absorbance of the ABTS^·+ solution was equilibrated to 0.70 (±0.02) by diluting with water at room temperature, then 1 mL of solution was mixed with 10 μL of the test sample (0.05–10 mg/mL), and the absorbance was measured at 734 nm after 6 min. All experiments were repeated three times. The percentage inhibition of absorbance was calculated and plotted as a function of the concentration of standard and sample to determine the trolox equivalent antioxidant concentration (TEAC). To calculate the TEAC, the gradient of the plot for the sample was divided by the gradient of the plot for trolox. The IC50 inhibitory concentration (nM/mL) values of tested compounds are depicted in Table 1. The ABTS^·+ radical scavenging activity of the samples was expressed as S%=[(Acontrol-Asample)/Acontrol]×100 where A control is the absorbance of the blank control (ABTS^·+ solution without test sample), and A sample is the absorbance of the test sample.

[2] = Lipid peroxidation inhibitory activity (egg lecithin liposomes, TBA); type: biochemical; conditions: Conc. ± SD; standard ascorbic acid; read-out: IC50 inhibitory concentration, Lipid peroxidation
Method: Egg lecithin (3 mg/mL phosphate buffer, pH 7.4) was sonicated in an ultrasonic sonicator for 10 min to ensure proper liposome formation. Test samples or standard, ascorbic acid (100 μL) of different concentrations (10, 20, 30, 40 50 and 100 μg/mL) was added to liposome mixture (1 mL); the control was without test sample. Lipid peroxidation was induced by adding ferric chloride (10 μL, 400 mM) and L-ascorbic acid (10 μL, 200 mM). After incubation for 1 h at 37 °C, the reaction was stopped by adding hydrochloric acid (2 mL, 0.25 N) containing trichloroacetic acid (150 mg/mL), thiobarbituric acid (3.75 mg/mL) and butylated hydroxy anisole (0.50 mg/mL). The reaction mixture was subsequently boiled for 15 min, cooled and centrifuged at 1,000 rpm for 15 min, and the absorbance of the supernatant was measured at 532 nm (Duh and Yen, [1997]). The % inhibition at different concentrations was calculated by the following formula %Inhibition=[1-(Vt/Vc)]×100 where V t = mean absorption of test compound, V c = mean absorption of control.
The IC50 (nM/mL) value was derived from the % inhibition at different concentrations.

[3] = DPPH radical scavenging activity; type: biochemical; conditions: Conc. ± SD; standard ascorbic acid; read-out: IC50 inhibitory concentration, DPPH radical
Method: Compounds of SC series were evaluated for their in vitro free radical scavenging activities by 2,2-diphenyl-1-picrylhydrazyl (DPPH) assay method (Blois, [1958]; Shishoo et al., [1999]; Chhajed et al., [2007]). To determine the free radical scavenging activity, a method based on the reduction of a methanolic solution of the coloured DPPH radical was used. To a set of test tubes containing methanol (3 mL), DPPH reagent (2 mg/mL) (50 μL) was added. The initial absorbance was measured. To these test tubes, methanolic solution of different test solutions (1 mg/mL) were added (10–50 μL). Ascorbic acid (0.5 mg/mL) was also added in the concentration of 10, 20, 30, 40, 50 and 100 μL. After 20 min, absorbance was recorded at 516 nm. The experiment was performed in triplicate. The percentage reduction in absorbance was calculated from the initial and final absorbance of each solution (Dhar and Taploo, [1982]).

[4] = test system: HEK 293, M468 and NCI-H226; experiment: In vitro cytotoxicity by MTT assay, summary over all cell lines; type: cell-based; conditions: on all cell lines
Method: The cancer cell line cultures of HEK 293 ([…]), BT474 (breast cancer cell line) and NCI-H226 (lung cancer) were obtained from Pasteur Institute of India, Coonoor, India, and were cultured in RPMI-1640 and 10 % heat-[…] New born calf serum with antibiotics [penicillin ([…]), streptomycin (100 μg/mL) and amphotericin B (25 μg/mL)]. The cells were maintained at 37 °C in a humidified atmosphere with 5 % CO2 and were subcultured twice a week.
The monolayer cell culture (100 μL) was trypsinized, and the cell count was adjusted to […] using medium containing 10 % new born calf serum. To each well of the 96-well microtitre plate, the diluted cell suspension (approximately 10,000 cells) (0.1 mL) was added and kept for 24 h in incubator at 37 °C in 5 % CO2 atmosphere for cell monolayer formation. After 24 h, when a partial monolayer was formed at the bottom of the well, the supernatant was flicked off, the monolayer was washed once, and different drugs, i.e. synthesized compounds (100 μL), were added to the cells in microtitre plates. The plates were then incubated at 37 °C for 3 days in 5 % CO2 atmosphere, and microscopic examination was carried out and observations recorded every 24 h. After 72 h, the sample solution in the wells was flicked off; MTT dye ([…]) was added to each well; plates were gently shaken and incubated for 4 h at 37 °C in 5 % CO2 incubator. The supernatant was removed and propanol (50 μL) was added; the plates were gently shaken to solubilize the formed formazan. The absorbance was measured using a microplate reader at a wavelength of 490 nm (Edmondson et al., [1988]; Prasad et al., [2005]; Chiruvella et al., [2008]; Chang et al., [2007]).

[5] = test system: BT474 (breast cancer cell line); experiment: In vitro cytotoxicity by MTT assay, BT474; type: cell-based; conditions: Homo sapiens, 72 h, read-out: % cytotoxicity (100 − % cell survival) of BT474 cell line
In short: (§1)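 RPMI-1640, 10 % newborn calf serum; ~10,000 cells/well, 24 h attachment; compound 72 h, 37 °C, 5 % CO2; MTT 4 h; propanol; A490.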

[6] = In vitro cytotoxicity by MTT assay, HEK 293; type: cell-based, human; conditions: human, HEK 293 cells, read-out: % cytotoxicity (100 − % cell survival) of HEK 293 cell line
In short: as §1

[7] = In vitro cytotoxicity by MTT assay, NCI-H226; type: cell-based; conditions: human, NCI-H226 lung cancer cells, 0.015 μM, read-out: % Cytotoxicity (100 − % cell survival) of NCI-H226 cell line
In short: as §1

[8] = test system: NCI-H226 (lung cancer cell line); experiment: In vitro cytotoxicity by MTT assay, NCI-H226; type: cell-based; conditions: Homo sapiens, 72 h, read-out: % Cytotoxicity (100 − % cell survival) of NCI-H226 cell line
In short: as §1

[9] = Superoxide anion radical scavenging (NBT/NADH/PMS); type: biochemical; conditions: Conc. ± SD; standard catechin; read-out: IC50 inhibitory concentration, Superoxide anion
Method: Measurement of superoxide anion scavenging activity of the synthesized compound was taken based on the method described by Nishimiki et al. ([1972]) and slightly modified. […] The reaction mixture was incubated at 25 °C for 5 min, and the absorbance at 560 nm was measured against blank samples. Catechin was used as reference compound. All the experiments were performed in triplicate, and the results were averaged. The percentage of inhibition was determined by comparing the results of control and test samples. The IC50 (nM/mL) value are depicted in Table 1.

## Cc1c(C)c2c(c(C)c1O)CCC(C)(C(=O)O)O2 (stereo not drawn) [trolox, 6-hydroxy-2,5,7,8-tetramethylchroman-2-carboxylic acid, reference compound]
[1]
  IC50: 84.5 ± 9.39 µM

## O=C1O[C@H]([C@@H](O)CO)C(O)=C1O [ascorbic acid, reference compound]
[2]
  IC50: 150 ± 16.9 µM
[3]
  IC50: 187 ± 35.4 µM

## O=C(NS(=O)(=O)c1nnc(N=Cc2ccco2)s1)c1ccccc1 [Compound 9j, N-({5-[(Furan-2-ylmethylidene)amino]-1,3,4-thiadiazol-2-yl}sulfonyl)benzamide]
[4]
  cytotoxic activity compared with all synthesized compounds: more potent
[5]; BT-474, 0.005 μM
  cytotoxicity at 0.005 µM: 30.4%
[5]; BT-474, 0.015 μM
  cytotoxicity at 0.015 µM: 34.6%
[5]; BT-474, 0.045 μM
  cytotoxicity at 0.045 µM: 37.4%
[5]; BT-474, 0.13 μM
  cytotoxicity at 0.13 µM: 40.1%
[5]; BT-474, 0.41 μM
  cytotoxicity at 0.41 µM: 43.6%
[5]; BT-474, 1.23 μM
  cytotoxicity at 1.23 µM: 45.1%
[5]; BT-474, 3.7 μM
  cytotoxicity at 3.7 µM: 49.3%
[5]; BT-474, 11.11 μM
  cytotoxicity at 11.11 µM: 52.1%
[5]; BT-474, 33.33 μM
  cytotoxicity at 33.33 µM: 56.9%
[5]; BT-474, 100 μM
  cytotoxicity at 100 µM: 61.4%
[6]; 0.005 μM
  cytotoxicity at 72 h, 0.005 µM: 31.4%
[6]; 0.015 μM
  cytotoxicity at 72 h, 0.015 µM: 32.8%
[6]; 0.045 μM
  cytotoxicity at 72 h, 0.045 µM: 33.7%
[6]; 0.13 μM
  cytotoxicity at 72 h, 0.13 µM: 34.3%
[6]; 0.41 μM
  cytotoxicity at 72 h, 0.41 µM: 34.5%
[6]; 1.23 μM
  cytotoxicity at 72 h, 1.23 µM: 35%
[6]; 3.7 μM
  cytotoxicity at 72 h, 3.7 µM: 35.3%
[6]; 11.11 μM
  cytotoxicity at 72 h, 11.11 µM: 36.1%
[6]; 33.33 μM
  cytotoxicity at 72 h, 33.33 µM: 36.9%
[6]; 100 μM
  cytotoxicity at 72 h, 100 µM: 38.9%
other
  melting point: 261 to 263 °C
[7]
  cytotoxicity at 72 h, 0.015 µM: 33.2%
[8]; NCI-H226, 0.005 μM
  cytotoxicity at 0.005 µM: 33%
[8]; NCI-H226, 0.045 μM
  cytotoxicity at 0.045 µM: 34.6%
[8]; NCI-H226, 0.13 μM
  cytotoxicity at 0.13 µM: 35.3%
[8]; NCI-H226, 0.41 μM
  cytotoxicity at 0.41 µM: 36.1%
[8]; NCI-H226, 1.23 μM
  cytotoxicity at 1.23 µM: 37%
[8]; NCI-H226, 3.7 μM
  cytotoxicity at 3.7 µM: 39.1%
[8]; NCI-H226, 11.11 μM
  cytotoxicity at 11.11 µM: 42.7%
[8]; NCI-H226, 33.33 μM
  cytotoxicity at 33.33 µM: 45.4%
[8]; NCI-H226, 100 μM
  cytotoxicity at 100 µM: 52.4%

## Oc1cc(O)c2c(c1)O[C@H](c1ccc(O)c(O)c1)[C@@H](O)C2 [catechin, reference compound]
[9]
  IC50: 171 ± 9.1 µM
